This is an account of results in US5866118A, “Polypeptides having 3g6-phytase activity from thermomyces and nucleic acids encoding same” (Novo Nordisk Biotech, Inc., priority 1997, dated 1999).

Data set [1] concerns Thermomyces lanuginosus CBS 586.94 phytase, purified recombinant, SEQ ID NO:2. Put plainly: Steady-state kinetics by substrate titration, assay of inorganic phosphate liberated from corn phytic acid. Type of data set: biochemical. Here is the method: (§1) All characterizations were performed with the purified recombinant Thermomyces lanuginosus CBS 586.94 phytase described in Example 11. Comparisons were also made where noted with a standard of an Aspergillus niger (ficuum) phytase obtained from Novo Nordisk A/S, Bagsverd, Denmark.
(§2) Enzyme kinetics studies. Enzyme kinetics studies were performed on the Thermomyces phytase and the Aspergillus niger phytase. The studies were accomplished by assay of inorganic phosphate liberated from corn phytic acid (Sigma Chemical Co., St. Louis, Mo.). Standard enzyme reactions were carried out for 30 minutes at 37° C. and pH 5.5 in 0.5% w/w phytic acid. The reaction was quenched by the addition of an equal volume of 15% w/w trichloroacetic acid. After cooling, 100 μl of the resulting mixture was diluted into 1.0 ml of glass distilled water. The sample was incubated at 50° C. for 5 minutes. Color reagent (1.0 ml) was added and the 50° C. incubation was continued for 15 minutes. The absorbance of a 200 μl aliquot was measured at 690 nm with a Molecular Devices Thermomax Microplate Reader. The color reagent is composed of 6N sulfuric acid: water: 2.5% (w/v) ammonium heptamolybdate, tetrahydrate: 10% ascorbate (aqueous) in a ratio of 1:2:1:1 and prepared fresh on a daily basis. Quantitation was based on a standard curve generated with a 10 mM sodium monobasic phosphate standard. One unit U) is defined as a μmole of inorganic phosphate released per minute at 37° C. and pH 5.5.
Steady-state kinetics measurements were made by substrate titration. Phytate concentrations were 2.16, 1.08, 0.541, 0.216, 0.108, and 0.0758 mM for the purposes of Km determination. Phytate concentrations of 1.08, 0.541, 0.216 and 0.108 mM in the presence or absence of 1 mM sodium monobasic phosphate were used for the purpose of evaluating product inhibition.

Data set [2] addresses T1, Aspergillus phytase (Aspergillus niger, UniProt P34752).
T1 sequence (P34752 24-467): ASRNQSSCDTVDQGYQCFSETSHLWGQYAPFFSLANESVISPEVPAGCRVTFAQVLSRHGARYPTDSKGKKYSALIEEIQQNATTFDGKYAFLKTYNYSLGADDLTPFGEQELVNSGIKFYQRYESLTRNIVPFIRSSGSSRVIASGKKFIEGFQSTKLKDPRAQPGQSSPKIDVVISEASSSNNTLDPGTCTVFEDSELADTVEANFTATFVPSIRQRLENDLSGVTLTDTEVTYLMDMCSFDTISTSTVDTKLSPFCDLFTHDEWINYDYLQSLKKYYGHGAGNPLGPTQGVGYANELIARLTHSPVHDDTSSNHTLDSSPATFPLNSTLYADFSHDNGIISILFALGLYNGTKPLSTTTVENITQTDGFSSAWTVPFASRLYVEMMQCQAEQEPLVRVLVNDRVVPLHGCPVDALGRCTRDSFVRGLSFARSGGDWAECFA
The note with it: Ullah, 1988, Preparative Biochemistry 18: 443-458; read-out: Ki (phosphate, competitive inhibitor); cited from earlier work.

Substrate in data set [3]: O=P(O)(O)O[C@H]1[C@H](OP(=O)(O)O)[C@@H](OP(=O)(O)O)[C@H](OP(=O)(O)O)[C@@H](OP(=O)(O)O)[C@H]1OP(=O)(O)O
Put plainly: Steady-state kinetics by substrate titration, assay of inorganic phosphate liberated from corn phytic acid. Type of data set: biochemical, Aspergillus niger (ficuum). Particulars: other: 37° C., pH 5.5, phytate 0.0758-2.16 mM. The procedure: as §1
as §2, with “One unit U) is defined as a μmole of inorganic phosphate released per minute at 37° C. and pH 5.5.” left out

In general, Ki refers to a dissociation constant, usually derived from enzyme kinetics or from competition with a known ligand. For the molecule `O=P([O-])(O)O.[Na+]` [phosphate, sodium monobasic phosphate], in data set [1] (1 mM sodium monobasic phosphate, phytate 0.108-1.08 mM), the “product inhibition with 1 mM phosphate present” value was “failed to reveal any type of inhibition”. The Ki was above 3000 µM in data set [1] (estimated, phytate 0.108-1.08 mM with or without 1 mM sodium monobasic phosphate) and 1900 µM in data set [2].

One may read the Km as the concentration of substrate that gives half-maximal velocity. With `O=P(O)(O)O[C@H]1[C@H](OP(=O)(O)O)[C@@H](OP(=O)(O)O)[C@H](OP(=O)(O)O)[C@@H](OP(=O)(O)O)[C@H]1OP(=O)(O)O` [phytate, myo-inositol hexakisphosphate], the Km in data set [1] (37° C., pH 5.5, phytate 0.0758-2.16 mM, read-out: apparent Km with respect to phytate) is around 110 µM.

B1: Aspergillus niger (ficuum) phytase, standard obtained from Novo Nordisk A/S (Aspergillus niger) (protein)
chain: T1 sequence (P34752 24-467)
notes: purchased Novo Nordisk A/S, Bagsverd, Denmark
In the case of B1, the Km in data set [3] was found to be 200 µM.
